Assay results as given in ChEMBL document CHEMBL1201862, “PubChem BioAssay data set” (2004).
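96-well plates; 48 h exposure; 5 concentrations. Endpoints by linear interpolation between flanking doses. Not reached: highest tested concentration assigned. GI50 marks 50% less growth.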 Active and inactive are the calls of the source. No stated cut-off is given here; in the data, active = GI50 up to about 1.1 µM and inactive = higher.

Columns and labels:
Assay in all cases: NCI anticancer screen, dose series, 48 h
[1] = test system: NCI-H522
[2] = test system: M14
[3] = test system: ACHN
[4] = test system: NCI-H23
[5] = test system: PC-3
[6] = test system: SN12C
[7] = test system: IGROV-1
[8] = test system: SNB-75
[9] = test system: HT-29
[10] = test system: KM12
[11] = test system: Malme-3M
[12] = test system: TK-10
[13] = test system: MDA-N
[14] = test system: HCC 2998
[15] = test system: MDA-MB-231
[16] = test system: SK-MEL-5
[17] = test system: NCI/ADR-RES
[18] = test system: T47D
[19] = test system: HL-60
[20] = test system: OVCAR-3

Structure (SMILES)	GI50 [1]	GI50 [2]	GI50 [3]	GI50 [4]	GI50 [5]	GI50 [6]	GI50 [7]	GI50 [8]	GI50 [9]	GI50 [10]	GI50 [11]	GI50 [12]	GI50 [13]	GI50 [14]	GI50 [15]	GI50 [16]	GI50 [17]	GI50 [18]	GI50 [19]	GI50 [20]
O=C(COc1ccc(OCC(=O)N2C(=O)CN(c3ccc(Cl)cc3)C2=S)cc1)N1C(=O)CN(c2ccc(Cl)cc2)C1=S	26.5 µM (inactive)	29 µM (inactive)	26.4 µM (inactive)	32.5 µM (inactive)	23.9 µM (inactive)	30.5 µM (inactive)	26.6 µM (inactive)	40.6 µM (inactive)	31.4 µM (inactive)	18.9 µM (inactive)	41.2 µM (inactive)	24.4 µM (inactive)	29.9 µM (inactive)	21.7 µM (inactive)	19.8 µM (inactive)	16.2 µM (inactive)	28.7 µM (inactive)	–	–	–
COc1nc(C#CC2CCCCC2)nc(OC)n1	1.59 µM (inactive)	2.38 µM (inactive)	4.26 µM (inactive)	1.45 µM (inactive)	4.21 µM (inactive)	2.2 µM (inactive)	3.79 µM (inactive)	9.71 µM (inactive)	4.81 µM (inactive)	4.76 µM (inactive)	1.95 µM (inactive)	–	3.28 µM (inactive)	–	2.3 µM (inactive)	3.06 µM (inactive)	1.64 µM (inactive)	31.7 µM (inactive)	1.12 µM (inactive)	3.22 µM (inactive)
O=c1[nH]nc(Cc2ccccc2)n1N=C1CCCCC1	> 100 µM (inactive)	> 100 µM (inactive)	> 100 µM (inactive)	> 100 µM (inactive)	> 100 µM (inactive)	> 100 µM (inactive)	> 100 µM (inactive)	–	58.7 µM (inactive)	> 100 µM (inactive)	> 100 µM (inactive)	> 100 µM (inactive)	> 100 µM (inactive)	–	> 100 µM (inactive)	> 100 µM (inactive)	> 100 µM (inactive)	> 100 µM (inactive)	> 100 µM (inactive)	> 100 µM (inactive)
COc1ccc(/C(Cl)=C(\C=O)c2ccc([N+](=O)[O-])cc2)cc1OC	4.07 µM (inactive)	7.28 µM (inactive)	8.83 µM (inactive)	4.26 µM (inactive)	8.71 µM (inactive)	5.73 µM (inactive)	17.3 µM (inactive)	3.62 µM (inactive)	14.2 µM (inactive)	20.4 µM (inactive)	14.6 µM (inactive)	13.4 µM (inactive)	3.25 µM (inactive)	–	13.8 µM (inactive)	8.2 µM (inactive)	6.38 µM (inactive)	6.9 µM (inactive)	2.7 µM (inactive)	11.5 µM (inactive)
CC1CCC(C(=O)O)(C(Br)C(=O)O)CC1 (stereo unspecified)	–	> 100 µM (inactive)	> 100 µM (inactive)	> 100 µM (inactive)	> 100 µM (inactive)	> 100 µM (inactive)	> 100 µM (inactive)	> 100 µM (inactive)	> 100 µM (inactive)	> 100 µM (inactive)	–	> 100 µM (inactive)	> 100 µM (inactive)	–	> 100 µM (inactive)	> 100 µM (inactive)	> 100 µM (inactive)	–	> 100 µM (inactive)	> 100 µM (inactive)
O=C(O)CN1CCN2CCOCCOCCN(CC1)CCN(CC(=O)O)CC2	> 100 µM (inactive)	> 100 µM (inactive)	> 100 µM (inactive)	–	> 100 µM (inactive)	> 100 µM (inactive)	> 100 µM (inactive)	> 100 µM (inactive)	> 100 µM (inactive)	> 100 µM (inactive)	> 100 µM (inactive)	> 100 µM (inactive)	> 100 µM (inactive)	–	> 100 µM (inactive)	> 100 µM (inactive)	> 100 µM (inactive)	> 100 µM (inactive)	–	> 100 µM (inactive)
CCc1c(O)nc(Nc2nc3ccccc3[nH]2)[nH]c1=O	> 100 µM (inactive)	> 100 µM (inactive)	> 100 µM (inactive)	> 100 µM (inactive)	> 100 µM (inactive)	> 100 µM (inactive)	> 100 µM (inactive)	> 100 µM (inactive)	> 100 µM (inactive)	–	> 100 µM (inactive)	> 100 µM (inactive)	> 100 µM (inactive)	> 100 µM (inactive)	> 100 µM (inactive)	> 100 µM (inactive)	> 100 µM (inactive)	–	> 100 µM (inactive)	> 100 µM (inactive)
Clc1ccccc1/C=c1\nc(-c2ccccc2)n2c1nc1ccccc12	–	> 100 µM (inactive)	> 100 µM (inactive)	17.8 µM (inactive)	4.66 µM (inactive)	> 100 µM (inactive)	27.2 µM (inactive)	–	> 100 µM (inactive)	> 100 µM (inactive)	> 100 µM (inactive)	31.4 µM (inactive)	30.6 µM (inactive)	–	22.8 µM (inactive)	> 100 µM (inactive)	40.9 µM (inactive)	> 100 µM (inactive)	> 100 µM (inactive)	> 100 µM (inactive)
CN(C)c1cccc(-c2cc(=S)c3cc4c(cc3[nH]2)OCO4)c1	12.6 µM (inactive)	5.28 µM (inactive)	7.93 µM (inactive)	5.62 µM (inactive)	3.61 µM (inactive)	16.4 µM (inactive)	6.38 µM (inactive)	–	6.24 µM (inactive)	5.13 µM (inactive)	8.28 µM (inactive)	> 77.4 µM (inactive)	2.83 µM (inactive)	7.89 µM (inactive)	31.9 µM (inactive)	3.4 µM (inactive)	3.94 µM (inactive)	6.87 µM (inactive)	–	8.67 µM (inactive)
Cc1ccc(-n2cc(-c3ccc(Cl)cc3)c3c(NNC(=S)NCc4ccccc4)ncnc32)cc1	4.53 µM (inactive)	10.5 µM (inactive)	13.6 µM (inactive)	13.5 µM (inactive)	2.59 µM (inactive)	7.21 µM (inactive)	12.2 µM (inactive)	–	14.3 µM (inactive)	3.66 µM (inactive)	20.3 µM (inactive)	11.1 µM (inactive)	14.9 µM (inactive)	–	17.8 µM (inactive)	5.09 µM (inactive)	6.37 µM (inactive)	24.8 µM (inactive)	6.98 µM (inactive)	4.56 µM (inactive)
COC(=O)c1cc2c(cc1Cl)Sc1nnc(Nc3ccccc3)n1S2(=O)=O	1.68 µM (inactive)	4.41 µM (inactive)	1.8 µM (inactive)	2.34 µM (inactive)	3.08 µM (inactive)	6.31 µM (inactive)	0.351 µM (active)	5.12 µM (inactive)	2.4 µM (inactive)	2.71 µM (inactive)	3.03 µM (inactive)	2.69 µM (inactive)	–	1.91 µM (inactive)	3.98 µM (inactive)	7.96 µM (inactive)	8.47 µM (inactive)	1.59 µM (inactive)	2.77 µM (inactive)	1.75 µM (inactive)
C#CC(=O)OCC#CCOC(=O)C#C	3.23 µM (inactive)	23.4 µM (inactive)	18.3 µM (inactive)	23.3 µM (inactive)	28.7 µM (inactive)	28.5 µM (inactive)	–	–	23 µM (inactive)	19.3 µM (inactive)	19.1 µM (inactive)	16.3 µM (inactive)	38.8 µM (inactive)	19.6 µM (inactive)	25.5 µM (inactive)	72.9 µM (inactive)	24.9 µM (inactive)	23.7 µM (inactive)	–	17.9 µM (inactive)
C=CCN1C[C@H](C)N([C@H](c2ccc(C(=O)N(CC)CCO)cc2)c2cccc(OC)c2)C[C@H]1C	> 100 µM (inactive)	> 100 µM (inactive)	> 100 µM (inactive)	> 100 µM (inactive)	38.6 µM (inactive)	> 100 µM (inactive)	> 100 µM (inactive)	–	47.6 µM (inactive)	> 100 µM (inactive)	> 100 µM (inactive)	> 100 µM (inactive)	> 100 µM (inactive)	–	> 100 µM (inactive)	54.7 µM (inactive)	> 100 µM (inactive)	38.5 µM (inactive)	> 100 µM (inactive)	12.3 µM (inactive)
CC(=O)C1COC(O)C1C (stereo unspecified)	–	23.9 µM (inactive)	23.9 µM (inactive)	16.1 µM (inactive)	20 µM (inactive)	20.7 µM (inactive)	17.2 µM (inactive)	23.3 µM (inactive)	29.4 µM (inactive)	13.6 µM (inactive)	–	28.6 µM (inactive)	21.3 µM (inactive)	–	22.2 µM (inactive)	16 µM (inactive)	18.5 µM (inactive)	35.2 µM (inactive)	12.4 µM (inactive)	19 µM (inactive)
Cc1ccc(S(=O)(=O)NC(CCC(=O)NN)C(=O)NN)cc1 (stereo unspecified)	> 100 µM (inactive)	> 100 µM (inactive)	> 100 µM (inactive)	> 100 µM (inactive)	> 100 µM (inactive)	–	> 100 µM (inactive)	> 100 µM (inactive)	> 100 µM (inactive)	> 100 µM (inactive)	> 100 µM (inactive)	> 100 µM (inactive)	> 100 µM (inactive)	–	> 100 µM (inactive)	> 100 µM (inactive)	> 100 µM (inactive)	> 100 µM (inactive)	> 100 µM (inactive)	> 100 µM (inactive)
Nc1nc(NNc2ccccc2F)cc(=O)[nH]1	–	> 100 µM (inactive)	> 100 µM (inactive)	–	> 100 µM (inactive)	> 100 µM (inactive)	> 100 µM (inactive)	–	> 100 µM (inactive)	> 100 µM (inactive)	> 100 µM (inactive)	> 100 µM (inactive)	> 100 µM (inactive)	> 100 µM (inactive)	> 100 µM (inactive)	> 100 µM (inactive)	> 100 µM (inactive)	–	56.8 µM (inactive)	> 100 µM (inactive)
